Reference: PubChem BioAssay (NCI)
Where “and” joins values, the source holds several entries; their conditions need not be identical. Identical values can stand only once.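 Grown in 96-well plates, cells were treated for 48 hours with each compound at five concentrations. Insufficient inhibition: endpoint recorded as highest concentration tested. GI50 marks 50% less growth. The concentration for full growth arrest is given as TGI.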

system: OVCAR-8 ovarian; assay: inhibition of tumour cell growth, NCI panel, 48 h

SMILES | GI50 | TGI
Cn1c(=O)c(Oc2ccc(F)cc2)cc2cnc(NC3CCOCC3)nc21 | > 25 µM | > 25 µM
CC1(C)N=C(N)N=C(N)N1c1ccc(CCCCc2ccc(Cl)c(S(=O)(=O)F)c2)c(Cl)c1 | 0.557 µM | 24.5 µM
Clc1nc(Cl)nc(Nc2cccc3ccccc23)n1 | > 100 µM | > 100 µM
Cc1cc2cc3c(=O)[nH]c(=O)[nH]c3nc2cc1C | – | > 100 µM
CCc1c(Cl)c(C)cc(O)c1Cl | – | > 100 µM
CC(C)OC(=O)[C@H](C)NP(=O)(OC[C@H]1O[C@@H](n2ccc(=O)[nH]c2=O)[C@](C)(F)[C@@H]1O)Oc1ccccc1 (some centres undefined) | > 100 µM | > 100 µM
C=COC(=O)N[C@H]1CCc2cc(OC)c(OC)c(OC)c2-c2ccc(SC)c(=O)cc21 | – | > 80.7 µM
CN(C)c1ncnc2c1ncn2CCn1cnc2c(N(C)C)ncnc21 | – | > 100 µM
O=C(O)c1ccc(C(=O)O)c2c(C(=O)O)ccc(C(=O)O)c12 | – | > 100 µM
CSc1nc(NC2OC(COC(C)=O)C(OC(C)=O)C(OC(C)=O)C2OC(C)=O)c(N=CC=Nc2c(NC3OC(COC(C)=O)C(OC(C)=O)C(OC(C)=O)C3OC(C)=O)nc(SC)n(C)c2=O)c(=O)n1C (centres undefined) | > 50 µM | > 100 µM
O=S(=O)(Nc1ccc(Cl)cc1Cl)c1ccc(-c2cnc(C3CC3)o2)cc1 | 1.79 µM | > 82.1 µM
CCc1ccc(/C=C/c2ccc(O)c3ncccc23)[n+](C)c1 | 0.668 µM | > 100 µM
S=c1[nH]c2c(Cl)c(Cl)c(Cl)c(Cl)c2[nH]1 | – | 57.4 µM
O=C(/C=C/C=C/c1ccccc1)c1ccccc1 | – | 26.1 µM
Cc1ccc(Nc2oc(-c3ccccc3)nc2[P+](c2ccccc2)(c2ccccc2)c2ccccc2)cc1 | 1.04 µM | 3.34 µM

system: 786-0 renal; assay: inhibition of tumour cell growth, NCI panel, 48 h

SMILES | GI50 | TGI
CN(C)C/C=C/C(=O)Nc1cc2c(Nc3ccc(F)c(Cl)c3)ncnc2cc1O[C@H]1CCOC1 | 2.3 µM and 1.79 µM | 13.9 µM and > 10 µM
COc1cc(/C=C/C(=O)c2cccc(-n3cc(-c4ccc(Cl)cc4)[nH]c3=O)c2)ccc1O | 2.54 µM | 6.69 µM
CCN(Cc1ccc(F)cc1)c1ccc(CO)c(Br)c1 | 5.85 µM | 31.1 µM
Cc1ccc2c(C3C(C#N)=C(N)Oc4cc5ccccc5cc43)cc(=O)oc2c1 (centres undefined) | 1.83 µM | > 100 µM
COC(=O)c1cc2c(s1)-c1nccc3c1c(nc1ccccc13)C2=O | > 100 µM | > 100 µM
Oc1ccc(Nc2c3ccccc3nc3occ(Cl)c23)cc1 | 12.9 µM | > 100 µM
O=C(Nc1cc(C(F)(F)F)ccc1Cl)c1cccc(NC2=C(Cl)C(=O)N(Cc3ccccc3)C2=O)c1 | 38.5 µM | > 100 µM
CC1(Br)Cc2ccccc2C1=O (centres undefined) | – | 6.39 µM
CN(C)C(=S)Sc1ccc([N+](=O)[O-])cc1[N+](=O)[O-] | 5.3 µM | 16 µM
CCOC(=O)/C=C/c1ccc(C#Cc2ccccc2)cc1 | > 100 µM | > 100 µM
O=[P@@]1(c2ccccc2)O[C@H](COCc2ccccc2)[C@@H](OCc2ccccc2)[C@H](OCc2ccccc2)[C@H]1NCc1ccccc1 | 3.03 µM | > 100 µM
C[C@H]1CN[C@@H]2[C@@H](C)[C@H]3[C@@H](C[C@H]4[C@@H]5CC[C@H]6C[C@@H](N)CC[C@]6(C)[C@H]5CC[C@]34C)O[C@@]2(O)C1 | – | 3.66 µM
COc1ccc(C(O)(CCC(C)C)C(CN2CCOCC2)c2ccc(Cl)cc2)cc1 (centres undefined) | 14 µM | 28.6 µM
Cn1c(=O)c(Oc2ccc(F)cc2)cc2cnc(NC3CCOCC3)nc21 | > 25 µM | > 25 µM
CC1(C)N=C(N)N=C(N)N1c1ccc(CCCCc2ccc(Cl)c(S(=O)(=O)F)c2)c(Cl)c1 | 1.63 µM | > 39.7 µM
Clc1nc(Cl)nc(Nc2cccc3ccccc23)n1 | > 100 µM | > 100 µM
Cc1cc2cc3c(=O)[nH]c(=O)[nH]c3nc2cc1C | – | > 100 µM
CCc1c(Cl)c(C)cc(O)c1Cl | – | > 100 µM
CC(C)OC(=O)[C@H](C)NP(=O)(OC[C@H]1O[C@@H](n2ccc(=O)[nH]c2=O)[C@](C)(F)[C@@H]1O)Oc1ccccc1 (some centres undefined) | > 100 µM | > 100 µM
C=COC(=O)N[C@H]1CCc2cc(OC)c(OC)c(OC)c2-c2ccc(SC)c(=O)cc21 | – | 50.8 µM
CN(C)c1ncnc2c1ncn2CCn1cnc2c(N(C)C)ncnc21 | – | > 100 µM
